According to US4843087A (priority 1986, dated 1989):
In brackets after ≈: the same amount, converted by molar mass.

What was measured:
Polio 2 = test: microbe, parasite or virus in culture; type: cell-based, poliovirus; settings: Enterovirus C, HeLa, read-out: Polio 2 MIC
[1] = system: human rhinovirus (HRV) serotypes; test: microbe, parasite or virus in culture; type: cell-based; settings: for MIC50: read-out: Rhinovirus MIC50; for IC (MIC80 of serotype panel): read-out: Rhinovirus MIC80
[2] = blood plasma concentration in dogs after oral administration; type: in vivo; settings: dog, beagle dogs, fasted, oral 25 mg/kg in corn oil, up to six hours
Description: The blood plasma concentrations of the compounds of the invention were measured in beagle dogs by the following procedure: Animals ranging in weight from 8.5 to 11.5 kg were fasted overnight prior to oral administration of 25 mg/kg of the test compound dissolved in corn oil (125 mg/ml) and contained in gelatin capsules. Blood samples were collected at selected time intervals up to six hours post-medication and analyzed by standard chromatographic procedures to determine the mean maximum concentration of the test compound in micrograms per milliliter [Mean Cmax, μg/ml].

[3] = system: poliovirus, type 2, MEF strain; test: animal or person; type: in vivo, white Swiss mice; settings: Enterovirus C, in Mus musculus, po, 336 h, read-out: Survivors Day 14 Post Infection

SMILES | MIC (Polio 2) [µg/mL] | MIC50 [1] [µg/mL] | IC (MIC80 of serotype panel) [1] [µg/mL] | Cmax [2] [ng/mL] | responders at 100 mg/kg [3] [%] | responders at 200 mg/kg [3] [%] | responders at 400 mg/kg [3] [%] | responders at 50 mg/kg [3] [%] | responders at 25 mg/kg [3] [%] | responders at 77 mg/kg [3] [%]
Cc1cc(CCCCCOc2c(Cl)cc(C3=NC(C)CO3)cc2Cl)on1 (stereo not shown) [Example 107, 5-{5-[2,6-Dichloro-4-(4,5-dihydro-4-methyl-2-oxazolyl)phenoxy]pentyl}-3-methylisoxazole] | 4.6 (≈ 11.6 µM) | 0.12 (≈ 0.302 µM) | 0.37 | 1530 ± 140 | – | – | – | – | – | –
Cc1cc(CCCCCCCOc2ccc(C3=NC(C)CO3)cc2)on1 (racemic) [Example 3, 5-{7-[4-(4,5-Dihydro-4-methyl-2-oxyazolyl)phenoxy]heptyl}-3-methylisoxazole] | 1.2 (≈ 3.37 µM) | 0.07 (≈ 0.196 µM) | 1.6 | – | 45 | 60 | 70 | – | – | –
Cc1cc(CCCCCOc2ccc(C3=NCCO3)cc2Cl)on1 [15(b), 5-{5-[2-Chloro-4-(4,5-dihydro-2-oxazolyl)phenoxy]pentyl}-3-methylisoxazole] | 0.12 (≈ 0.344 µM) | 0.08 (≈ 0.229 µM) | 0.35 | – | 60 | – | – | 40 | – | –
Cc1cc(CCCCCCCc2ccc(C3=NCCO3)cc2)on1 [6(g), 5-{7-[4-(4,5-Dihydro-2-oxazolyl)phenyl]heptyl}-3-methylisoxazole] | 0.09 (≈ 0.276 µM) | – | – | – | 85 | 95 | – | 25 | – | –
Cc1cc(CCCCCOc2c(Cl)cc(-c3nc(C)c(C)o3)cc2Cl)on1 [119(c), 5-{5-[2,6-Dichloro-4-(4,5-dimethyl-2-oxazolyl)phenoxy]pentyl}-3-methylisoxazole] | – | 0.32 (≈ 0.782 µM) | 0.53 | 2130 ± 480 | – | – | – | – | – | –
Cc1cc(CCCCC(C)Oc2c(Cl)cc(C3=NCCO3)cc2Cl)on1 (stereo not shown) [Example 109, 5-{5-[2,6-Dichloro-4-(4,5-dihydro-2-oxazolyl)phenoxy]hexyl}-3-methylisoxazole] | 2.9 (≈ 7.3 µM) | 0.16 (≈ 0.403 µM) | 0.89 | 2110 ± 610 | – | – | – | – | – | –
Cc1cc(CCCCCCCOc2ccc(C3=NCCO3)cc2Cl)on1 [13(c), 5-{7-[2-Chloro-4-(4,5-dihydro-2-oxazolyl)phenoxy]heptyl}-3-methylisoxazole] | 0.17 (≈ 0.451 µM) | 0.34 (≈ 0.902 µM) | 1.06 | – | 80 | – | – | 61.1 | 20 | –
Cc1cc(CCCCCOc2ccc(C3=NCCO3)cc2)no1 [7(k), 3-{5-[4-(4,5-Dihydro-2-oxazolyl)phenoxy]pentyl}-5-methylisoxazole] | 0.0012 (≈ 0.00382 µM) | 1.3 (≈ 4.14 µM) | 74.6 | – | 80 | – | – | – | – | –
Cc1cc(CCCCCCOc2c(Cl)cc(C3=NCCO3)cc2Cl)on1 [Example 106, 5-{6-[2,6-Dichloro-4-(4,5-dihydro-2-oxazolyl)phenoxy]hexyl}-3-methylisoxazole] | 0.58 (≈ 1.46 µM) | 0.18 (≈ 0.453 µM) | 0.41 | 1530 ± 150 | – | – | – | – | – | –
Cc1cc(CCCCCCOc2ccc(C3=NC(C)CO3)cc2Cl)on1 (stereo not shown) [Example 48, 5-{6-[2-Chloro-(4,5-dihydro-4-methyl-2-oxazolyl)phenoxy]hexyl}-3-methylisoxazole] | 2.3 (≈ 6.1 µM) | 0.13 (≈ 0.345 µM) | 0.37 | – | – | – | – | – | – | –
Cc1cc(CCCCCCCOc2ccc(C3=NCCO3)cc2)on1 [Example 1(c), 5-{7-[4-(4,5-Dihydro-2-oxazolyl)phenoxy]heptyl}-3-methylisoxazole] | 0.04 (≈ 0.117 µM) | 1.7 (≈ 4.96 µM) | 99 | – | 90 | – | – | 70 | – | –
Cc1cc(CCCCCCCOc2c(Cl)cc(C3=NCCO3)cc2Cl)on1 [Example 114, 5-{7-[2,6-Dichloro-4-(4,5-dihydro-2-oxazolyl)phenoxy]heptyl}-3-methylisoxazole] | 0.48 (≈ 1.17 µM) | 0.22 (≈ 0.535 µM) | 0.62 | – | – | – | – | – | – | –
Cc1cc(CCCCCOc2ccc(C3=NCCCO3)cc2)on1 [Example 95, 5,6-Dihydro-2-{4-[5-(3-methyl-5-isoxazolyl)pentyloxy]phenyl}-4H-1,3-oxazine] | 0.15 (≈ 0.457 µM) | 1.65 (≈ 5.02 µM) | 26.3 | – | – | – | – | – | – | –
Cc1cc(CCCCCCCOc2ccc(C3=NCCCO3)cc2)on1 [94(c), 5,6-Dihydro-2-{4-[7-(3-methyl-5-isoxazolyl)heptyloxy]phenyl}-4H-1,3-oxazine] | 0.8 (≈ 2.24 µM) | 1.06 (≈ 2.97 µM) | 99 | – | – | – | – | – | – | –
Cc1cc(CCCCCOc2c(Cl)cc(C3=NCCO3)cc2Br)on1 [152(d), 5-{5-[2-Bromo-6-chloro-4-(4,5-dihydro-2-oxazolyl)phenoxy]pentyl}-3-methylisoxazole] | 0.97 (≈ 2.27 µM) | 0.095 (≈ 0.222 µM) | 0.23 | – | – | – | – | – | – | –
Cc1cc(CCCCCCOc2ccc(C3=NCCO3)cc2)on1 [14(b), 5-{6-[4-(4,5-Dihydro-2-oxazolyl)phenoxy]hexyl}-3-methylisoxazole] | 0.017 (≈ 0.0518 µM) | 0.8 (≈ 2.44 µM) | 25.5 | – | – | – | – | – | – | –
Cc1noc(CCCCCCCOc2ccc(C3=NCCO3)cc2)c1CO [29(b), 5-{7-[4-(4,5-Dihydro-2-oxazolyl)phenoxy]heptyl}-3-methyl-4-isoxazolemethanol] | 0.02 (≈ 0.0537 µM) | 1.25 (≈ 3.34 µM) | 1.7 | – | – | – | – | – | – | –
COc1cc(C2=NCCO2)ccc1OCCCCCc1cc(C)no1 [Example 42, 5-{5-[4-(4,5-Dihydro-2oxazolyl)-2-methoxyphenoxy]pentyl}-3-methylisoxazole] | 0.12 (≈ 0.348 µM) | 0.35 (≈ 1.02 µM) | 0.64 | – | – | – | – | – | – | –
COC(=O)CCC(=O)OCc1cc(CCCCCOc2c(Cl)cc(C3=NCCO3)cc2Cl)on1 [Example 148, 5-{5-[2,6-Dichloro-4-(4,5-dihydro-2-oxazolyl)phenoxy]pentyl}-3-isoxazolylmethyl methyl butanedioate] | 8.5 (≈ 16.6 µM) | 0.17 (≈ 0.331 µM) | 0.45 | – | – | – | – | – | – | –
Cc1cc(CCCCCOc2ccc(C3=NCCO3)c(Cl)c2)on1 [Example 47, 5-{5-[3-Chloro-4-(4,5-dihydro-2-oxazolyl)phenoxy]pentyl}-3-methylisoxazole] | 0.02 (≈ 0.0573 µM) | 0.36 (≈ 1.03 µM) | 2.4 | – | – | – | – | – | – | –
Cc1cc(CCCCOc2ccc(C3=NCCO3)cc2Cl)on1 [Example 24, 5-{4-[2-Chloro-4-(4,5-dihydro-2-oxazolyl)phenoxy]butyl}-3-methylisoxazole] | 1.7 (≈ 5.08 µM) | 0.087 (≈ 0.26 µM) | 1.2 | – | – | – | – | – | – | –
Cc1cc(CCCCCOc2c(Br)cc(C3=NCCO3)cc2Br)on1 [Example 74, 5-{5-[2,6-Dibromo-4-(4,5-dihydro-2-oxazolyl)phenoxy]pentyl}-3-methylisoxazole] | 2 (≈ 4.24 µM) | 0.13 (≈ 0.275 µM) | 0.59 | – | – | – | – | – | – | –
Cc1cc(CCCCCOc2ccc(C3=NCCO3)cc2)on1 [Example 2, 5-{5-[4-(4,5-Dihydro-2-oxazolyl)phenoxy]pentyl}-3-methylisoxazole] | 0.6 (≈ 1.91 µM) | 0.38 (≈ 1.21 µM) | 2.2 | – | – | – | – | – | – | 85
Cc1cc(CCCCCOc2ccc(-c3nc(C)c(C)o3)cc2C)on1 [Example 90, 5-{5-[4-(4,5-Dimethyl-2-oxazolyl)-2-methylphenoxy]pentyl}-3-methylisoxazole] | 1.5 (≈ 4.23 µM) | 0.2 (≈ 0.564 µM) | 0.49 | – | – | – | – | – | – | –
